From US8969309B2, “Crystal of peptide substance as well as the preparation method and use thereof” (Shanghai Techwell Biopharmaceutical Co., Ltd., priority 2010, dated 2015) come the findings set out here.

The data set in a line: Purity and stability test (content by HPLC after sealed storage). It counts as physicochemical. The conditions noted are these: for Content of the intial sample: HPLC content before storage; for Content of the sample stored at 25° C. for 14 days: sealed storage at 25° C. for 14 days, content by HPLC. The protocol: The purity was detected by high performance liquid chromatography (HPLC) method. HPLC method was performed according to the method reported in Journal of Industrial Microbiology & Biotechnology (2001), 26, 216-221; the normal phase HPLC is employed:
silica gel column: 4.6 mm*250 mm;
Mobile phase: ethyl acetate:methanol:water=84:9:7 (V/V/V);
Detection wavelength: 278 nm.
The purity and stability of samples prepared in the comparative example and examples 1-4 were compared. The method is described as follows:
The samples from comparative-example, example 1, example 2, example 3 and example 4 were obtained separately and kept at 25° C. for 14 days in sealed storage. And then the contents of the samples were tested by HPLC.

On to `CCC(C)CC(C)CCCCCCCCC(=O)NC1CC(O)[C@@H](O)NC(=O)[C@H]2[C@@H](O)CCN2C(=O)[C@H](C(O)CC(N)=O)NC(=O)C(C(O)C(O)c2ccc(O)cc2)NC(=O)[C@@H]2C[C@@H](O)CN2C(=O)[C@H](C(C)O)NC1=O` (some centres unmarked) [Comparative example, reference compound], for which the Content of the intial sample amounted to 97.7% and the Content of the sample stored at 25° C. for 14 days is 95.6%.

In the case of `CCC(C)CC(C)CCCCCCCCC(=O)NC1CC(O)[C@@H](O)NC(=O)[C@H]2[C@@H](O)CCN2C(=O)[C@H](C(O)CC(N)=O)NC(=O)C(C(O)C(O)c2ccc(O)cc2)NC(=O)[C@@H]2C[C@@H](O)CN2C(=O)[C@H](C(C)O)NC1=O` (some centres unmarked) [Example 1], the Content of the intial sample amounted to 96.1% and the Content of the sample stored at 25° C. for 14 days was found to be 93.5%.

The compound `CCC(C)CC(C)CCCCCCCCC(=O)NC1CC(O)[C@@H](O)NC(=O)[C@H]2[C@@H](O)CCN2C(=O)[C@H](C(O)CC(N)=O)NC(=O)C(C(O)C(O)c2ccc(O)cc2)NC(=O)[C@@H]2C[C@@H](O)CN2C(=O)[C@H](C(C)O)NC1=O` (some centres unmarked) [Example 2] registered a Content of the intial sample of 99.8% and a Content of the sample stored at 25° C. for 14 days of 99.6%.

Regarding `CCC(C)CC(C)CCCCCCCCC(=O)NC1CC(O)[C@@H](O)NC(=O)[C@H]2[C@@H](O)CCN2C(=O)[C@H](C(O)CC(N)=O)NC(=O)C(C(O)C(O)c2ccc(O)cc2)NC(=O)[C@@H]2C[C@@H](O)CN2C(=O)[C@H](C(C)O)NC1=O` (some centres unmarked) [Example 3], the Content of the intial sample was determined as 99.8% and the Content of the sample stored at 25° C. for 14 days was 99.5%.

On to `CCC(C)CC(C)CCCCCCCCC(=O)NC1CC(O)[C@@H](O)NC(=O)[C@H]2[C@@H](O)CCN2C(=O)[C@H](C(O)CC(N)=O)NC(=O)C(C(O)C(O)c2ccc(O)cc2)NC(=O)[C@@H]2C[C@@H](O)CN2C(=O)[C@H](C(C)O)NC1=O` (some centres unmarked) [Example 4], for which the Content of the intial sample came out at 99.8% and the Content of the sample stored at 25° C. for 14 days amounted to 99.5%.

Take `CCC(C)CC(C)CCCCCCCCC(=O)NC1CC(O)[C@@H](O)NC(=O)[C@H]2[C@@H](O)CCN2C(=O)[C@H](C(O)CC(N)=O)NC(=O)C(C(O)C(O)c2ccc(O)cc2)NC(=O)[C@@H]2C[C@@H](O)CN2C(=O)[C@H](C(C)O)NC1=O` (some centres unmarked) [crystal B of the compound of formula I]: the “stability compared with crystal A and amorphous powder” value (25° C., 14 days, sealed storage) is “better stability”.
